Data from publication PMC5795618 (Molecular pharmaceutics, 2017).
Like-named read-outs stand apart in the source and are kept apart here. Blank lines part the entries; values can stand above or below the compound they belong to.

Assays:
[1] = rats; for tissue/plasma ratio: AUC tissue/AUC plasma of 2-PMPA
[2] = rats; for tissue/plasma ratio: AUC tissue/AUC plasma of 2-PMPA; remark: listed apart in the source
[3] = molecular target: recombinant human GCPII protein (Homo sapiens, UniProt Q04609); test: GCPII radioenzymatic activity assay; type: biochemical; conditions: read-out: IC50(±SEM)
[4] = Plasma stability of 2-PMPA prodrugs, human plasma; type: in vitro ADME; conditions: 10 μM, 37 °C
[5] = system: GCPII; conditions: cited from earlier work
[6] = cited from earlier work
[7] = equivalent 2-PMPA administration, cited from earlier work
[8] = primates, IN 2-PMPA 30 mg/kg; cited from earlier work

Chain of recombinant human GCPII protein (Q04609 whole entry): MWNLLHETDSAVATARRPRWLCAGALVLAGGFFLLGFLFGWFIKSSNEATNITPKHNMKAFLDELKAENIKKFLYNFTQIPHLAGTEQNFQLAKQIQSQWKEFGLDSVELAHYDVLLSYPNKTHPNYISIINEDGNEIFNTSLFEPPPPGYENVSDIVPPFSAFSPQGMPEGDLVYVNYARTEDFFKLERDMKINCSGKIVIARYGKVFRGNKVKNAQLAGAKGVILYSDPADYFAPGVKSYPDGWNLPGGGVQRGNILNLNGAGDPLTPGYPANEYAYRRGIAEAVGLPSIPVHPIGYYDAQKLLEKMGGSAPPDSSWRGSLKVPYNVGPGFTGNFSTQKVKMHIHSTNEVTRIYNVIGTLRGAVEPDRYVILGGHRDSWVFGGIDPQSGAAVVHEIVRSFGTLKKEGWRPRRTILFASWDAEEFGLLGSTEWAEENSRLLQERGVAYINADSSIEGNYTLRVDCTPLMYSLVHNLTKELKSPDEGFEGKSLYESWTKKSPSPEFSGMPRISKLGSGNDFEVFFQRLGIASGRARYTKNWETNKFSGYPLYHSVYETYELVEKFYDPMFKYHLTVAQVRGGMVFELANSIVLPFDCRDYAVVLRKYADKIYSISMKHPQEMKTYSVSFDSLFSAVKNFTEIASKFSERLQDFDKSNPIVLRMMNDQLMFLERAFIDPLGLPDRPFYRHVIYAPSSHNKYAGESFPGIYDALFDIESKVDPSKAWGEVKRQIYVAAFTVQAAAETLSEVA

Structure (SMILES): CC(=O)Oc1ccc(COC(=O)CCC(CP(=O)(O)O)C(=O)O)cc1 (stereo not shown) [Compound 1, γ-(4-acetoxybenzyl)-2-PMPA]
tissue/plasma ratio ([1]; cerebellum, IV): 0.04 | fold lower 2-PMPA level after IV as compared to IN ([1]; cerebellum): 4 fold | tissue/plasma ratio ([1]; cortex, IV): 0.04 | fold lower 2-PMPA level after IV as compared to IN ([1]; cortex): 4.5 fold | tissue/plasma ratio ([1]; olfactory bulb, IV): 0.03 | tissue/plasma ratio ([1]; plasma, IV): 1 | intact prodrug in brain or sciatic nerve ([1]; IV, any time point): No intact prodrug was quantifiable | Cmax ([1]; read-out: intact prodrug Cmax in plasma, IV, 10 mg/kg equivalent): 200 nM | tissue/plasma ratio ([1]; sciatic nerve, IV): 0.21 | fold lower 2-PMPA level after IV as compared to IN ([1]; sciatic nerve): 5 fold | tissue/plasma ratio ([2]; cerebellum, IN): 0.26 | tissue/plasma ratio ([2]; olfactory bulb, IN): 2.2 | tissue/plasma ratio ([2]; plasma, IN): 1 | improvement of sciatic nerve to plasma ratio over free 2-PMPA ([2]; IN compound 1 versus equivalent dose of 2-PMPA): 7 fold | intact prodrug AUC in plasma ([2]; IN, 10 mg/kg equivalent): 8.04 nmol·h/mL | intact prodrug in brain or sciatic nerve ([2]; IN, any time point): No intact prodrug was quantifiable | Cmax ([2]; read-out: intact prodrug Cmax in plasma, IN, 10 mg/kg equivalent): 22 µM | tissue/plasma ratio ([2]; sciatic nerve, IN): 0.84 | IC50 [3]: 3 ± 0.2 nM | Plasma stability % remaining @60 min Human [4]: 42%

Structure (SMILES): O=C(O)CCC(CP(=O)(O)O)C(=O)O (stereo not shown) [Compound 2-PMPA, 2-(Phosphonomethyl)pentanedioic acid]
IC50 [5]: […] | oral bioavailability (F) [6]: < 2% | plasma exposure (AUC) ([7]; IN route): 79.1 nmol·h/mL | plasma exposure (AUC) ([7]; intraperitoneal (IP) route): 77.1 nmol·h/mL | 2-PMPA concentration in CSF [8]: […]

Structure (SMILES): CCCCOC(=O)CCC(CP(=O)(O)O)C(=O)O (stereo not shown) [Compound 3]
IC50 ([3]; GCPII inhibition): 1 ± 0.1 nM

More lines, now with the values ahead:

IC50 ([3]; GCPII inhibition): 20 ± 1 nM
Structure (SMILES): O=C(CCC(CP(=O)(O)O)C(=O)O)OCc1ccccc1 (stereo not shown) [Compound 4]

IC50 ([3]; GCPII inhibition): 2 ± 0.2 nM
Structure (SMILES): CCCCCCCCOC(=O)CCC(CP(=O)(O)O)C(=O)O (stereo not shown) [Compound 5]
